In one assay the target is T1, Carboxypeptidase B2 (Homo sapiens, UniProt Q96IY4).
T1 sequence (Q96IY4 whole entry): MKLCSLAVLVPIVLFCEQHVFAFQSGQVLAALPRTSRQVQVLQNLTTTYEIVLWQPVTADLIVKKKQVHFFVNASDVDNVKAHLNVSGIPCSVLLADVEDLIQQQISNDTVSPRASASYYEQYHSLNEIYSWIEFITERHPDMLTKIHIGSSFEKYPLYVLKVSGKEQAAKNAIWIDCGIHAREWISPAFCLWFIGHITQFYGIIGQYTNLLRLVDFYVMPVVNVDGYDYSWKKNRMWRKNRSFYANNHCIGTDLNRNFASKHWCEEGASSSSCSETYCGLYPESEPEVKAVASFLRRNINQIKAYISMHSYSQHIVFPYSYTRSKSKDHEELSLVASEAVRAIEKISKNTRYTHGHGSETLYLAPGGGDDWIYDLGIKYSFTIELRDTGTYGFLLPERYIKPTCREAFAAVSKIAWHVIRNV
Description: Inhibitory potency against human TAFIa (thrombin-activatable fibrinolysis inhibitor).

Another assay addresses T2, Carboxypeptidase B (Homo sapiens, UniProt P15086).
T2 sequence (P15086 whole entry): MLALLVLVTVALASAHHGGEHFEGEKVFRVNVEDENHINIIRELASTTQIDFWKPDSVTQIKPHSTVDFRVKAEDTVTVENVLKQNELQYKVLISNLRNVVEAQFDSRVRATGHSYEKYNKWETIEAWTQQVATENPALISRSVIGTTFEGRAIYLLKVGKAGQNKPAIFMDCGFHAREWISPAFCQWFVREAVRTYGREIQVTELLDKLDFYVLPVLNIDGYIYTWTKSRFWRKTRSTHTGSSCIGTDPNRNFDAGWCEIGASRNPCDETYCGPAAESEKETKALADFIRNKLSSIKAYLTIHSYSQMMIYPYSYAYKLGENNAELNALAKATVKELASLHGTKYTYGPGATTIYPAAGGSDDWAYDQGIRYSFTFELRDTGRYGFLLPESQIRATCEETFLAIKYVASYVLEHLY
Description: Inhibition of human carboxypeptidase B (CPB).

Assay [1] is described as follows: Concentration providing 50% acceleration of clot lysis in pooled human plasma. The format is functional.
The species named for another assay is Homo sapiens. Nature of the assay: Selectivity for TAFIa versus CPB carboxypeptidase B isoforms.

This note sets out measurements from ChEMBL document CHEMBL1147549, “Imidazole acetic acid TAFIa inhibitors: SAR studies centered around the basic P(1)(') group” (Bioorg Med Chem Lett, 2004).

A word on the IC50: it is the concentration at which inhibition is half-maximal.

Molecules are shown by their SMILES. Some results are limits rather than exact numbers.

As for `Nc1ncc(CC(C(=O)O)c2c[nH]cn2)cn1` (configuration not stated), the 50% inhibitory concentration (IC50) against Carboxypeptidase B2 amounted to 67 µM.
As for `Cc1cc(CC(C(=O)O)c2c[nH]cn2)cnc1N` (configuration not stated), the values for the IC50 against Carboxypeptidase B and against Carboxypeptidase B2 were 20 nM and 0.1 µM, respectively. In assay [1], this compound yielded a CLT50 of 2.1 µM. Further, the Selectivity in the assay filed under Homo sapiens is 0.2.
As for `O=C(O)C(CCC1CNC1)c1cnc[nH]1` (configuration not stated), the IC50 against Carboxypeptidase B2 is above 20 µM.
On to `CC(C)CCn1cnc(C(CCCCN)C(=O)O)c1` (configuration not stated), for which the IC50 against Carboxypeptidase B stood at 160 nM; against Carboxypeptidase B2 it was 0.024 µM. In addition, the CLT50 in assay [1] turned out to be 0.21 µM. This compound also showed a Selectivity in the assay filed under Homo sapiens of 6.7.
On Carboxypeptidase B2, `O=C(O)C(CCC1CCCNCC1)c1cnc[nH]1` (configuration not stated) came in with a 50% inhibitory concentration (IC50) above 20 µM.
Still for that read-out and setting: under `O=C(O)C(CC1CCCNCC1)c1c[nH]cn1` (configuration not stated) stands above 20 µM; under `NC1CCC(CC(C(=O)O)c2cnc[nH]2)CC1` (configuration not stated), 7 µM; under `Cc1nc(N)ccc1CC(C(=O)O)c1c[nH]cn1` (configuration not stated), 5.8 µM.
The same measure, in the same setting: under `NC1CCCC(CC(C(=O)O)c2c[nH]cn2)C1` (configuration not stated) stands above 20 µM.
With `CC(CN)CCC(C(=O)O)c1cnc[nH]1` (configuration not stated), the IC50 at Carboxypeptidase B came to 1500 nM; against Carboxypeptidase B2, 0.27 µM.
In turn, `O=C(O)C(CC1CCNC1)c1c[nH]cn1` (configuration not stated) yielded a 50% inhibitory concentration (IC50) on Carboxypeptidase B2 above 20 µM.
Regarding `O=C(O)C(CC1CCNCC1)c1cnc[nH]1` (configuration not stated), the IC50 against Carboxypeptidase B2 is above 20 µM.
Regarding `CC(CN)CCC(C(=O)O)c1c[nH]cn1` (configuration not stated), the Selectivity in the assay listed under Homo sapiens was determined as 5.6.
As for `Cc1cc(CC(C(=O)O)c2cn(CCC(C)C)cn2)cnc1N` (configuration not stated), the IC50 on Carboxypeptidase B came to 1 nM; against Carboxypeptidase B2, 0.023 µM. For the same compound, the CLT50 in assay [1] stood at 0.17 µM. The compound further showed a Selectivity in the assay listed under Homo sapiens of 0.04.
As for `CC(C)(C)CCn1cnc(C(C[C@H]2CC[C@H](N)C2)C(=O)O)c1` (some centres not stated), the IC50 on Carboxypeptidase B is 1 nM; against Carboxypeptidase B2, 0.001 µM. Besides, the CLT50 in assay [1] was 0.014 µM. In the assay listed under Homo sapiens, this compound displayed a Selectivity of 1.
With `NCCCCCC(C(=O)O)c1cnc[nH]1` (configuration not stated), the half-maximal inhibitory concentration (IC50) on Carboxypeptidase B2 is 4.7 µM.
For the compound `CNCCCCC(C(=O)O)c1cnc[nH]1` (configuration not stated), at Carboxypeptidase B2, the concentration for half-maximal inhibition (IC50) was found to be 26 µM.
On Carboxypeptidase B2, `O=C(O)C(Cc1ccc2nccn2c1)c1cnc[nH]1` (configuration not stated) gave an IC50 of 3.3 µM.
Still for that read-out and setting: under `Nc1cc(CC(C(=O)O)c2c[nH]cn2)ccn1` (configuration not stated) stands 12 µM.
Turning to `O=C(O)C(CC1CNC1)c1cnc[nH]1` (configuration not stated), the half-inhibitory concentration (IC50) against Carboxypeptidase B2 is above 20 µM.
Still for that read-out and setting: the figure for `NCCCC(C(=O)O)c1cnc[nH]1` (configuration not stated) is 6.8 µM; for `Nc1ncc(CC(C(=O)O)c2cnc[nH]2)cc1Cl` (configuration not stated) it is 5.3 µM.
The same measure, in the same setting: the figure for `Nc1ncc(CC(C(=O)O)c2c[nH]cn2)cc1F` (configuration not stated) is 6.7 µM.
For `Nc1ccc(CC(C(=O)O)c2c[nH]cn2)cn1` (configuration not stated), the 50% inhibitory concentration (IC50) at Carboxypeptidase B stood at 70 nM. Moreover, the CLT50 in assay [1] came out at 0.97 µM.
As for `CNc1ccc(CC(C(=O)O)c2cnc[nH]2)cn1` (configuration not stated), the midpoint of inhibition on Carboxypeptidase B2, the IC50, lay at 13 µM.
Still for that read-out and setting: the figure for `O=C(O)C(CCC1CCNCC1)c1c[nH]cn1` (configuration not stated) is above 20 µM; for `Cc1cc(N)ncc1CC(C(=O)O)c1c[nH]cn1` (configuration not stated) it is 1.5 µM; for `Nc1cccc(CC(C(=O)O)c2cnc[nH]2)n1` (configuration not stated) it is 15 µM.
At Carboxypeptidase B, `CC(C)CCn1cnc(C(Cc2ccc(N)nc2)C(=O)O)c1` (configuration not stated) registered a concentration for half-maximal inhibition (IC50) of 4 nM. For the same compound, the CLT50 entry in assay [1] is “==0.12 uM”.
On to `Cc1cc(CC(C(=O)O)c2cn(CCC(C)(C)C)cn2)cnc1N` (configuration not stated), for which the IC50 stood at 1 nM against Carboxypeptidase B and 0.012 µM against Carboxypeptidase B2. Moreover, the CLT50 in assay [1] came to 0.159 µM. The compound also gave a Selectivity in the assay listed under Homo sapiens of 0.08.
As to `O=C(O)C(CCC1CCNC1)c1cnc[nH]1` (configuration not stated), at Carboxypeptidase B2, the half-inhibitory concentration (IC50) was above 20 µM.
With `NCCCCC(C(=O)O)c1c[nH]cn1` (configuration not stated), the IC50 came to 3700 nM against Carboxypeptidase B and 0.59 µM on Carboxypeptidase B2. Further, the CLT50 entry in assay [1] is reported as “>=20 uM”. Further, the Selectivity in the assay listed under Homo sapiens came out at 6.3.
As for `CC(C)(CN)CCC(C(=O)O)c1c[nH]cn1` (configuration not stated), the IC50 against Carboxypeptidase B was 600 nM; against Carboxypeptidase B2, 0.38 µM. This compound had a Selectivity in the assay filed under Homo sapiens of 1.6.
Regarding `CN(C)CCCCC(C(=O)O)c1cnc[nH]1` (configuration not stated), the IC50 against Carboxypeptidase B2 was above 50 µM.
